Biological target: T1, 20S proteasome (chymotrypsin-like activity) (Homo sapiens, UniProt P28074)
T1 sequence (P28074 60-263): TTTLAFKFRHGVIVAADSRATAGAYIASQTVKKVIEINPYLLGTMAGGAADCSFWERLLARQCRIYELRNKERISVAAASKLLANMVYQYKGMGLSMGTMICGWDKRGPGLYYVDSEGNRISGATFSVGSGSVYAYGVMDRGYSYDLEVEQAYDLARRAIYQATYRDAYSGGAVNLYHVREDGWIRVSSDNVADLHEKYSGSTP
Experiment: fluorogenic Suc-LLVY-AMC hydrolysis by purified […] proteasome
Type: biochemical

SMILES	IC50 [µM]
O=C([O-])Cc1c[nH]c2ccccc12.O=C([O-])Cc1c[nH]c2ccccc12.O=C([O-])Cc1c[nH]c2ccccc12.O=C([O-])Cc1c[nH]c2ccccc12.[Cu+2].[Cu+2] [compound 3, Complex 3]	3
O=C([O-])CCc1c[nH]c2ccccc12.O=C([O-])CCc1c[nH]c2ccccc12.[Cu+2].c1cnc2c(c1)ccc1cccnc12 [compound 6, Complex 6]	3.3

Source: PMC3662054 (Journal of biological inorganic chemistry : JBIC : a …, 2012)
